Here are results for one compound from patent US20130143969A1 (THE OHIO STATE UNIVERSITY, priority 2010, published 2013).

Data set [1] in a line: Solubility of curcumin in different PEGs and temperatures. Type of data set: physicochemical. As for the experimental part:
The pharmaceutical compositions may be prepared by dissolving solid curcumin in an excipient. […] In one embodiment, the mixture is stirred at an elevated temperature until a homogenous solution is obtained. For example, the mixture may be heated to a temperature within the range from about 30° C. to about 150° C.; from about 50° C. to about 120° C.; from about 60° C. to about 100° C. […]

Data set [2] relates to p15^INK4B promoter region. The experiment in a line: DNA methylation analysis of the p15INK4B promoter region (LC-MS/MS). Type of data set: cell-based. As to conditions: MV4-11 cells, 10 μM curcumin, 72 hours. As for the experimental part: Genomic DNA isolated from MV4-11 cells was treated with bisulfite using the Epi methylation Kit (Qiagen, Minneapolis, Minn.) according to the instruction from the manufacturer and followed by PCR amplification as follows. The sequences of p15^INK4B primers were: forward 5′-GGGAGGGTAATGAAGTTGAGTTTA-3′ (SEQ ID NO. 1), and reverse 5′-ACCCTAAAACCCCAACTACCTAAAT-3′ (SEQ ID NO. 2). PCR amplifications were performed as follows: 95° C. for 5.5 min, 55° C. for 30s for 5 cycles, and 52° C. for 30 s for 38 cycles, 72° C. for 30s for 38 cycles, with a final step at 72° C. for 1 min. PCRs were carried out in a 100 μl volume containing 10 μl of buffer (10×), 2 μL of each primer (10 μM), 2 μL of (10 mM) dNTPs, 2 U of Platinum Taq DNA polymerase (Invitrogen, Carlsbad, Calif.), 70.6 μL ddH2O and 10 μL of bisulfite treated DNA in a GeneAmp 9700 thermal cycler (Perkin-Elmer, Norwalk, Conn.). PCR products were purified using QIAquick columns and eluted in water. A 500 ng aliquot of the PCR product was incubated with 25 UM. […] Fully methylated PCR products were purified using the QIAquick PCR Purification kit (Qiagen, Minneapolis, Minn.), according to the manufacturer's instructions and 200 ng of the purified DNA was hydrolyzed and the concentrations of 5mdC and 2dC in the hydrolysate were measured by LC-MS/MS using the conditions as described previously.

Data set [3] has as its system MV4-11 leukemia cell-engrafted animal model. The experiment in a line: Xenograft animal model, anti-tumor growth activity. Type of data set: in vivo, athymic nu/nu mice. On the procedure:
Female athymic nu/nu mice (4-6 weeks old, 18-22 g) were obtained from Charles River Laboratory (Wilmington, Mass.) and acclimated for 1 week in a pathogen-free enclosure before start of study. Animals were given sterile rodent chow and water ad libitum and were housed in sterile filter-top cages with 12 hour light/dark cycles. All experiments were conducted in accordance with the guidelines of the Association for Assessment and Accreditation of Laboratory Animal Care International. MV4-11 cells (5×10^6 cells per mouse) were suspended with 50% Matrigel (Becton Dickinson) and subcutaneously implanted into both right and left flanks of the athymic nu/nu mice. When tumors were grown between 100 to 200 mm^3, treatments were initiated. Mice were randomly assigned into two cohorts for the anti-tumor growth activity studies, with 6 mice per group. […] Tumor volume was calculated by using the equation V=2×A×B^2/3, where A is the longer (horizontal as width) diameter (mm) and B is the shorter (perpendicular as depth) diameter (mm) and expressed in cubic millimeter. After 4 weeks, mice were euthanized and tumor tissues were excised, snapfrozen in liquid nitrogen, weighed and stored in a −80° C. freezer until analysis.

[4] abbreviates: day 29 after the treatment, i.p. 100 mg/kg.

As for `COc1cc(/C=C/C(=O)CC(=O)/C=C/c2ccc(O)c(OC)c2)ccc1O` [curcumin], in data set [1] (in 1 mL PEG 400 at 100° C), the “amount of curcumin that can dissolve” value is reported as “about 200 mg”. Also, the “Final Conc. 100° C.” value turned out to be 193.1 mg/mL in data set [1] (solubility in PEG 200, 100° C); 252.3 mg/mL in data set [1] (solubility in PEG 300, 100° C); 195 mg/mL in data set [1] (solubility in PEG 400, 100° C); 218.9 mg/mL in data set [1] (solubility in PEG 500, 100° C); 241.8 mg/mL in data set [1] (solubility in PEG 600, 100° C). The “Final Conc. 60° C.” value is 131.4 mg/mL in data set [1] (solubility in PEG 400, 60° C) and 136.0 mg/mL in data set [1] (solubility in PEG 600, 60° C). Besides, the “Final Conc. @ RT” value in data set [1] (solubility in PEG 400, RT) was 42.7 mg/mL; in data set [1] (solubility in PEG 600, RT), 42.0 mg/mL. In data set [2], the “decrease of p15INK4B promoter methylation level” value was “about 40%”. Also, in data set [3] (MV4-11 engrafted nude mice (summary)), the tumor size decrease result was “about 65%”. Besides, in data set [3] (setting [4]), the “reduction of tumor size” value was determined as 3854 mm^3. Besides, the “reduction of tumor weight” value in data set [3] (setting [4]) was 65%. Besides, the body weight entry in data set [3] (i.p. 100 mg/kg five days a week, 4 weeks) is on record as “No significant weight loss”. Besides, in data set [3] (i.p. 100 mg/kg, linear mixed effect model), the “decrease of tumor growth rate compared with control” value stood at 142.5 mm^3 per day. In addition, in data set [3] (pilot study), the “life span of MV4-11 engrafted nude mice” value is recorded as 6 weeks. Also, in data set [3] (treatment group), the average tumor weight is on record as 3.6 g.
